The values that follow come from US10681909B2, “Herbicidal triazoles” (FMC Corporation, priority 2014, dated 2020).

One assay has as its system kochia. Put plainly: Test D preemergence. The class given is in vivo, Kochia scoparia. The following applies: for Plant response rating: Kochia: scale 0 to 100. The source says: (§1) Seeds of plant species selected from bluegrass (annual bluegrass, Poa annua), blackgrass (Alopecurus myosuroides), canarygrass (Phalaris minor), chickweed (common chickweed, Stellaria media), galium (catchweed bedstraw, Galium aparine), bromegrass, down (downy bromegrass, Bromus tectorum), Russian thistle (Salsola kali), field poppy (Papaver rhoeas), field violet (Viola arvensis), foxtail, green (green foxtail, Setaria viridis), deadnettle (henbit deadnettle, Lamium amplexicaule), ryegrass, Ital. (Italian ryegrass, Lolium multiflorum), kochia (Kochia scoparia), lambsquarters (Chenopodium album), oilseed rape (Brassica napus), pigweed (Amaranthus retroflexus), chamomile (scentless chamomile, Matricaria inodora), speedwell (bird's-eye speedwell, Veronica persica), barley, spring (spring barley, Hordeum vulgare), wheat, spring (spring wheat, Triticum aestivum), buckwheat, wild (wild buckwheat, Polygonum convolvulus), wild mustard (Sinapis arvensis), oat, wild (wild oat, Avena fatua), radish, wild (wild radish, Raphanus raphanistrum), […]), barley, winter (winter barley, Hordeum vulgare), and wheat, winter (winter wheat, Triticum aestivum) were planted into a silt loam soil and treated preemergence with test chemicals formulated in a non-phytotoxic solvent mixture which included a surfactant. At the same time, these species were planted in pots containing Sunshine Redi-Earth® planting medium comprising spaghnum peat moss, vermiculite, starter nutrients and dolomitic limestone and treated with postemergence applications of the test chemicals formulated in the same manner. Plants ranged in height from 2 to 18 cm (1- to 4-leaf stage). Treated plants and controls were maintained in a controlled growth environment for 14 to 21 d after which time all species were compared to controls and visually evaluated. […] A dash (-) response means no test result.

For assay [1], the system named is blackgrass. Put plainly: Test D preemergence. The assay is classed as in vivo, Alopecurus myosuroides. The following applies: for Plant response rating: Blackgrass: scale 0 to 100.
Description: as §1

Another assay relates to canarygrass. Put plainly: Test D preemergence. The class given is in vivo, Phalaris minor. The following applies: for Plant response rating: Canarygrass: scale 0 to 100.
Description: as §1

For assay [2], the system named is blackgrass. Put plainly: Test D postemergence. The assay is classed as in vivo, Alopecurus myosuroides. The following applies: scale 0 to 100.
Description: as §1

The mark [3] stands for this setting: 16 g ai/ha, 0 is no effect, 100 is complete control.

As for `COc1nc(-c2ccc(Cl)cc2)nn1Cc1ccnc(C(F)(F)F)c1` [Compound 28], in the assay on kochia (setting [3]), the “Plant response rating (0 to 100), Kochia” value amounted to 85. In addition, the “Plant response rating: Kochia” value in the assay on kochia (62 g ai/ha) is 85; in the assay on kochia (125 g ai/ha) it was 95. Further, the “Plant response rating (0 to 100), Blackgrass” value with blackgrass [1] (setting [3]) came out at 30. Besides, the “Plant response rating: Blackgrass” value amounted to 30 in the assay on blackgrass [1] (31 g ai/ha); 50 in the assay on blackgrass [1] (62 g ai/ha); 50 with blackgrass [1] (125 g ai/ha); 25 with blackgrass [2] (16 g ai/ha); 35 in the assay on blackgrass [2] (31 g ai/ha); 55 in the assay with blackgrass [2] (62 g ai/ha). Moreover, in the assay on blackgrass [2] (125 g ai/ha), the “Plant response rating: Blackgrass” value is given as 60. Also, the “Plant response rating (0 to 100), Canarygrass” value in the assay with canarygrass (setting [3]) was 10. Also, the figures for the “Plant response rating: Canarygrass” value with canarygrass (31 g ai/ha), in the assay on canarygrass (62 g ai/ha) and with canarygrass (125 g ai/ha) were 40, 60 and 65, respectively.
